Here are results for ten compounds from patent US5709816A, “Singlet oxygen quenchers and external compositions containing the same” (Kao Corporation, priority 1899, dated 1998).

A short description of experiment [1]: Quenching rate constant of singlet oxygen (Rose Bengal photosensitization, Stern-Volmer method). As to conditions: kq; ethanol solution, 50 μM Rose Bengal; singlet oxygen lifetime taken as 10 μs. It is filed as biochemical. An excerpt:
Method for measuring the quenching rate constant of singlet oxygen:
The apparatus used for measuring singlet oxygen included the following parts.
(1) Light source: Xenon lamp (150 W) (Atago Bussan K.K.)
(2) Filters on the excitation side: Water filter (optical path: 50 mm), Color glass filters (HA-15, HA-30, G-533, manufactured by Hoya K.K.)
(3) Sample: Square quartz cell (2×10×50 mm)
(4) Filters on the detection side: Color glass filter (IR-85, manufactured by Hoya K.K.), Interference filter (Nippon Shinku-Kogaku K.K.)
(5) Spectrometer and detector: Spectrometer (HR-320, Jovin Yvon Co.), Germanium (Ge) detector (EO-817L, a type using liquid nitrogen as a coolant, North coast Scientic Corporation)
(6) Amplifier: Light chopper (5584, NF Co.), Frequency filter (E-3201B, NF Co.), Super low noise amplifier (SA-200F3, NF Co.), Digital storage oscilloscope (2431L, SONY Tektronix Co.)
(7) Recording section: Personal computer (PC-9801 BA, NEC Corporation), GP-IB interface
(8) Oxygen concentration control unit: High-pressure oxygen cylinder
Using this apparatus, light was irradiated onto a system which is known to produce singlet oxygen through photochemical sensitization. The wavelength of the light was within an appropriate absorption range of the photosensitizer employed. weak emission in the near infrared region, which is specific to singlet oxygen, was measured for its intensity I. Subsequently, the emission obtained when a test substance was added to the same system was measured. From the decrease in emission intensity I, the quenching rate constant of singlet oxygen of the test substance could be measured in accordance with the Stern-Volmer method. However, since some substances react with the photochemical sensitization system to cause errors in the measurements, the method described by R. H. Young et al., Photochem. Photobiol., vol. 17, p. 233 (1973) was applied to correct this contribution quenching.
A 50 μM ethanol solution of Rose Bengal in a 400 μl square quartz cell was used as a test substance.
First, the light within 490-590 nm, which is appropriate for the maximum absorption wavelength of Rose Bengal, was irradiated onto the cell containing the test substance.
Similarly, another system was subjected to measurement in which a typical singlet oxygen quencher, β-carotene, sodium azide,or 1,4-diazabicyclo[2.2.2]octane, had been added.
Measurement of the quenching rate constant of singlet oxygen: An ethanol solution of each of compounds obtained in the above-described Synthesis Examples and N-phenyldiethanolamine (compound (36)), with Rose Bengal, as a conventional photosensitizer, was used for the measurement of the quenching rate constants of singlet oxygen.
First, emission intensity I of a mixture solution containing 50 μM of Rose Bengal and the above compounds were measured under saturated air conditions. The ratio IOair /Iair was calculated, wherein Iair represents the emission intensity measured for a solution with a test substance at a concentration of Cq (Iair), and Oair represents the emission intensity measured for a solution without test substance. Next, under saturated oxygen conditions, emission intensity was measured for a solution with a test substance at the same concentration Cq (I302). Using these emission intensities, the correction term Fair was obtained in accordance with the following equation.
Interference attributed to the test substance with respect to the photosensitization reaction system was corrected by multiplying IOair /Iair by Fair.
Using the following equation:
(IOair /Iair)'=1+kq ·.tau.·Cq

The test system of experiment [2] is E. coli vector pUC119 DNA. It is filed as biochemical. As to conditions: 0.01 wt. % in ethanol; 100 mM porphyrin; UV-A/UV-B 3 J/cm^2; agarose gel electrophoresis. The procedure:
To a mixture of […] E. coli vector pUC119 DNA and 100 mM porphyrin, an ethanol solution containing a test substance (0.01 wt. %) was added. A mixture of UV-A/UV-B (3 J/cm^2, measured at 365 nm) was irradiated onto the resultant DNA mixture using a solar simulator. A 2.5-fold amount of ethanol and a 0.1-fold amount of 5M sodium acetate were added and the DNA was precipitated. The DNA pellet was dissolved in a TE buffer, and analyzed through agarose gel electrophoresis. Inhibition of DNA single strand breaks formation was measured.

Take `COCC(O)CN(C)c1ccc(OC)cc1` (centres unmarked) [Compound (1), N-(2-hydroxy-3-methoxypropyl)-N-methyl-p-anisidine]: the “Extinction rate constant of singlet oxygen” value (shortened to “Extinction rate constant”) in experiment [1] turned out to be 2.2e+08 M⁻¹ s⁻¹. In addition, in experiment [2], the “Prevention of DNA damage” value came out at 69%.

Take `CCCCN(CC(O)COC)c1ccc(OC)cc1` (centres unmarked) [Compound (2), N-n-butyl-N-(2-hydroxy-3-methoxypropyl)-p-anisidine]: in experiment [1], the “Extinction rate constant” value is 2e+08 M⁻¹ s⁻¹. For the same compound, the “Prevention of DNA damage” value in experiment [2] is given as 50%.

Regarding `CCCCCCCCN(CC(O)COC)c1ccc(OC)cc1` (centres unmarked) [Compound (3), N-(2-hydroxy-3-methoxypropyl)-N-n-octyl-p-anisidine], the “Extinction rate constant” value in experiment [1] worked out at 2.3e+08 M⁻¹ s⁻¹. The “Prevention of DNA damage” value in experiment [2] is given as 71%.

For `COCC(O)CN(CC(O)COC)c1ccc(C)cc1` (centres unmarked) [Compound (4), N,N-bis(2-hydroxy-3-methoxypropyl)-p-toluidine], in experiment [1], the “Extinction rate constant” value stood at 2.1e+08 M⁻¹ s⁻¹. Moreover, in experiment [2], the “Prevention of DNA damage” value was 69%.

Take `CCCCN(CC(O)COC)c1ccc(C)cc1` (centres unmarked) [Compound (5), N-n-butyl-N-(2-hydroxy-3-methoxypropyl)-p-toluidine]: the “Extinction rate constant” value in experiment [1] was 1.5e+08 M⁻¹ s⁻¹. For the same compound, the “Prevention of DNA damage” value in experiment [2] is 66%.

Regarding `CCCCN(CC(O)COC)c1ccccc1` (centres unmarked) [Compound (6), N-n-butyl-N-(2-hydroxy-3-methoxypropyl)aniline], the “Extinction rate constant” value in experiment [1] was 1.1e+08 M⁻¹ s⁻¹. Besides, the “Prevention of DNA damage” value in experiment [2] was 47%.

Regarding `CCCCN(CC(O)COC)c1ccc(C)c(C)c1` (centres unmarked) [Compound (32), N-n-butyl-N-(2-hydroxy-3-methoxypropyl)-3,4-xylidine], the “Extinction rate constant” value in experiment [1] stood at 1.6e+08 M⁻¹ s⁻¹. For the same compound, the “Prevention of DNA damage” value in experiment [2] is given as 61%.

For the compound `Cc1ccc(N(C)CC(O)CO)cc1` (centres unmarked) [Compound (33), N-(2,3-dihydroxypropyl)-N-methyl-p-toluidine], the “Extinction rate constant” value in experiment [1] was determined as 1.4e+08 M⁻¹ s⁻¹. In experiment [2], the “Prevention of DNA damage” value amounted to 48%.

In the case of `CCCCN(CC(O)CO)c1ccc(C)c(C)c1` (centres unmarked) [Compound (34), N-n-butyl-N-(2,3-dihydroxypropyl)-3,4-xylidine], the “Extinction rate constant” value in experiment [1] was determined as 1.7e+08 M⁻¹ s⁻¹. The “Prevention of DNA damage” value in experiment [2] is 64%.

Regarding `CCCCCCCCN(CC(O)CO)c1ccc(OC)cc1` (centres unmarked) [Compound (35), N-(2,3-dihydroxypropyl)-N-octyl-p-anisidine], the “Extinction rate constant” value in experiment [1] was found to be 2.2e+08 M⁻¹ s⁻¹. The “Prevention of DNA damage” value in experiment [2] came to 79%.
